Results from PubChem BioAssay AID394.

Target: Tyrosine-protein phosphatase non-receptor type 14 (Homo sapiens) (UniProt Q15678)
Assay: compound-induced PTPN14 thermal stabilization – biophysical, human, DSF, SYPRO orange (AID 394)
Conditions: recombinant PTPN14, DSF thermal shift, at 10 µM, protein 2 µM, buffer 10 mM HEPES, pH 7.5, NaCl 150 mM, stronger effect = higher value

Sequence of Tyrosine-protein phosphatase non-receptor type 14 (Homo sapiens) (Q15678 whole entry, looked up): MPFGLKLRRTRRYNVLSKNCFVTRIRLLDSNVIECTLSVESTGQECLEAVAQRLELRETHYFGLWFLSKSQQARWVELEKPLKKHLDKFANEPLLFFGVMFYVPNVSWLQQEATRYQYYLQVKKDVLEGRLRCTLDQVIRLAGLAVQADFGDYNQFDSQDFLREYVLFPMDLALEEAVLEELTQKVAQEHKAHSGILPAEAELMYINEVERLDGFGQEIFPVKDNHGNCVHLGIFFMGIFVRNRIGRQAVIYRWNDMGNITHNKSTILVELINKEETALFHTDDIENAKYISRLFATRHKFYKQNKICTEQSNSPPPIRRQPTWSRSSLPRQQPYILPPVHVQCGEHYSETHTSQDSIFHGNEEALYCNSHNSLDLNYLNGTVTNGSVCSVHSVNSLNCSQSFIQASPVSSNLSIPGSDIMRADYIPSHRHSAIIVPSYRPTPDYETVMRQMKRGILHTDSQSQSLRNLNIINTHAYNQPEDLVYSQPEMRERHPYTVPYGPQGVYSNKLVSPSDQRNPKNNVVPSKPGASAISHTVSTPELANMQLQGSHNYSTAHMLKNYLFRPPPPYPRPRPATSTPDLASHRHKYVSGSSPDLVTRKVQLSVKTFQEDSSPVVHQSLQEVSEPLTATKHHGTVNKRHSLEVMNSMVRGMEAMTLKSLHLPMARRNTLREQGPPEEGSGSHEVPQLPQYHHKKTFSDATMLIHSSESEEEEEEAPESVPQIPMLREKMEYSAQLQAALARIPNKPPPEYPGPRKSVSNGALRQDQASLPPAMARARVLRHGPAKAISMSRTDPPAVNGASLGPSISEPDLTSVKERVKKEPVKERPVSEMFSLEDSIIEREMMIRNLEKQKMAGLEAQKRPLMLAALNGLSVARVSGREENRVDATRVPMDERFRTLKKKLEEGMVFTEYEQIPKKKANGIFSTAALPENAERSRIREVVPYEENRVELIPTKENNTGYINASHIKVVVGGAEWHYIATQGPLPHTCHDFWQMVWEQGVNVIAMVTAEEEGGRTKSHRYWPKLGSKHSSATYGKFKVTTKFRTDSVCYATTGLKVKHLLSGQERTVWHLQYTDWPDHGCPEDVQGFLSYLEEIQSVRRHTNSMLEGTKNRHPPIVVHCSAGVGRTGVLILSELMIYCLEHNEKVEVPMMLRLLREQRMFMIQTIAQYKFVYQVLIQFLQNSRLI

Row | SMILES | Tm shift | Tm shift (DTT 2000 µM, with dithiothreitol)
1 | OO.OO.[K+].[O]=[V].c1cnc2c(c1)ccc1cccnc12 | 5.88 Celsius | –
2 | O=C(O)c1ccc(O)cn1.OO.[O]=[V] | 5.95 Celsius | –
3 | OO.OO.[K+].[O]=[V].c1ccc(-c2ccccn2)nc1 | 4.81 Celsius | –

Other lines, results leading:

Row | Tm shift | Tm shift (DTT 2000 µM, with dithiothreitol) | SMILES
4 | 4.45 Celsius | – | O=C(O)c1ccc([O-])cn1.OO.OO.[K+].[K+].[O]=[V]
5 | – | 2.3 Celsius | O=C([O-])c1ccccn1.OO.OO.[K+].[K+].[O]=[V]
